Assay results taken from patent US5314999A, “Derivatives of basic polyene macrolides and their preparation” (Laboratoires Mayoly-Spindler, priority 1989, dated 1994).
Counter-ions that a name gives are not always drawn. Like-named read-outs stand apart in the source and are kept apart here.

Assays:
[1] = background; cited from earlier work
Aspergillus fumigatus = experiment: Diffusion method in agar-agar medium (Sabouraud agar-agar); type: cell-based
Method: (§1) A.2 : Study of the antibiotic efficiency of amphotericine B derivatives in agar-agar medium against Aspergillus
(§2) The antibiotic activity was tested by the diffusion method in agar-agar medium (Sabouraud agar-agar).
(§3) The efficiency of each molecule was determined by the size of the growth-inhibiting zone around a WHATMAN 3M paper disc impregnated with the antibiotic substance of a given concentration.
(§4) A suspension of Aspergillus spores in a broth was prepared, 0.2 ml of this suspension was used to inoculate at its surface an agar-agar medium which was solidified in such a manner that a homogeneous growth layer was obtained. After spreading, the WHATMAN 3M paper discs (diameter: 1 cm) were placed on the surface of the agar-agar, and then impregnated with 0.1 ml of the antibiotic substance at different concentrations.

Aspergillus flavus = experiment: as above; type: cell-based; settings: Aspergillus flavus, read-out: concentration giving a growth inhibition of 1 cm around a disc in solid medium
Method: as §1, §2, §3, §4

[2] = Solubility of the AmB derivatives; type: physicochemical; settings: 5% glucose solution, ambient temperature
Method: C.2. Solubility of the AmB derivatives according to the present invention
AmB or the derivatives obtained are dissolved at ambient temperature in a 5% glucose solution up to saturation.

Pytirosporum orbiculare = experiment: Growth inhibition in liquid medium (Sabouraud broth); type: cell-based; settings: read-out: IC 50 (growth-inhibiting concentration of 50%)
Method: (§5) A.1 : Study of the antibiotic efficiency of AmB derivatives in liquid medium against different yeasts
(§6) The antibiotic efficiency was tested by the growth inhibition method in liquid medium (Sabouraud broth) in the presence of different concentrations of the derivatives studied.
(§7) A yeast suspension was cultivated in a broth in such a manner that about 1×10^2 cell/ml were obtained.
(§8) The tubes containing the different concentrations of antifungal substance were inoculated with the same amount of yeast cells, and were then incubated at 28° C. for 18 hours with stirring. For each concentration of antifungal substance, two identical tubes were prepared.
(§9) The inhibition of fungal growth corresponding to the different concentrations was evaluated for each molecule by spectrophotometry at 620 nm and expressed in percent with respect to a reference solution without antifungal substance.

Candida albicans = experiment: as above; type: cell-based; settings: read-out: IC 50 (growth-inhibiting concentration of 50%)
Method: as §5, §6, §7, §8, §9

Candida albicans B 2630 = experiment: as above; type: cell-based; settings: B2630, 18 h, read-out: IC 50 (growth-inhibiting concentration of 50%)
Method: as §5, §6, §7, §8, §9

Saccharomyces cerevisiae = experiment: as above; type: cell-based; settings: Saccharomyces cerevisiae, 18 h, read-out: IC 50 (growth-inhibiting concentration of 50%)
Method: as §5, §6, §7, §8, §9

Cryptoccocus neoformans = experiment: as above; type: cell-based; settings: read-out: IC 50 (growth-inhibiting concentration of 50%)
Method: as §5, §6, §7, §8, §9

[3] = Toxicity on nucleated cells, human PBL; type: cell-based; settings: human, pbl, human PBLs; AmB 12 derivative, comparison of different catalysts (Table 4); read-out: LD 50
Method: (§10) B.2: Study of the toxicity on nucleated cells
(§11) The solutions of the amphotericine B derivatives are prepared similarly to those mentioned in paragraph B.1.
(§12) The cells are prepared by placing 20 ml of blood diluted to 1/2 with 0.9% NaCl into a tube together with 10 ml of Ficoll-hypaque, and the mixture is centrifuged at 2000 rpm for 30 minutes. The cell nuclei are recovered and washed twice with PBS buffer containing 5% of foetal calf serum.
(§13) The cells are prepared by suspending 1.14×10^6 cells/ml in RPMI 1640 containing 2.5% of foetal calf serum and by filling each well with 150 μl. 50 μl of each dilution of the derivatives are added and also one control (5% glucose solution).
(§14) The cells are then incubated in a steam cabinet at a CO2 concentration of 5% for 1 hour 30 at 37° C. or at ambient temperature.
(§15) To evaluate the toxicity of the derivatives, a cell count in the presence of trypan blue is made, and the LD 50 (concentration of the derivative leading to a mortality of 50%) is calculated with respect to the control (5% glucose solution) for each concentration of each derivative.

X 63 (mice lymphoma B) = experiment: Toxicity on nucleated cells, X 63 mice lymphoma B; type: cell-based; settings: 1 hour 30, trypan blue, 90 min, read-out: LD 50 (concentration leading to a mortality of 50%)
[4] = Toxicity on nucleated cells, mice B lymph gland cells; type: cell-based; settings: mouse, 1 hour 30, trypan blue, read-out: LD 50 (concentration leading to a mortality of 50%)
Method: as §10, §11, §12, §13, §14, §15

[5] = Toxicity on red corpuscles (lysis), human; type: cell-based; settings: human, red corpuscles, 37° C., 1 hour 30, read-out: LD 50 (dose which leads to lysis in 50% of the erythrocytes)
Method: (§16) B.1: Study of the toxicity on red corpuscles
(§17) All the solutions of the AmB derivatives according to the invention were prepared immediately before use by diluting 4 mg of substance in 100 μl of 5% glucose solution, and then, after 15 minutes protected from light, 100 μl of sterile distilled water are added, and the mixture is made up to stock solutions of 4 mg/ml with a 5% glucose solution. For comparative study of the effects of AmB, 4 mg of FUNGIZONE are diluted with 1 ml of 5% glucose.
(§18) The cells are prepared by placing 1 ml of a peripheral blood sample into a tube together with Ficollhypaque to remove the lymphocytes, and then centrifuging the mixture at 2000 rpm for 20 minutes. The remaining red corpuscles are recovered, washed once with 0.9% NaCl and then twice with 150 Mm KCl, 0.5 Mm tris-HCl, pH 7.4.
(§19) A 1.25% suspension is then prepared with 150 mM KCl solution, 0.5 mM tris-HCl, pH 7.4, and 150 μl thereof are distributed in wells along with 50 μl of each of the dilutions of the derivatives, plus a control well (5% glucose solution).
(§20) The cells are then incubated at 37° C. in a steam cabinet for 1 hour 30.
(§21) To evaluate the cell lysis, haemoglobin is essayed by removing 100 μl of the supernatant in each well and diluting the sample with 1 ml of distilled water.
(§22) The haemoglobin concentration is calculated by measuring the optical density at 540 nm and taking into account the absorption of the derivatives of amphotericine B.
(§23) LD 50 is the dose which leads to lysis in 50% of the erythrocytes (a control of 100% lysis is obtained with distilled water, and reference lysis of 0% is obtained with the 5% glucose solution).

[6] = Toxicity on nucleated cells, mice thymocytes; type: cell-based; settings: mouse, thymocytes, 1 hour 30, trypan blue, read-out: LD 50 (concentration leading to a mortality of 50%)
PBL = experiment: Toxicity on nucleated cells, human PBL; type: cell-based; settings: human PBL, 1 hour 30, trypan blue; 90 min; read-out: LD 50 (concentration leading to a mortality of 50%)
Method: as §10, §11, §12, §13, §14, §15

[7] = Toxicity on nucleated cells, human thymocytes; type: cell-based; settings: 1 hour 30, trypan blue, read-out: LD 50 (concentration leading to a mortality of 50%)
Method: as §10, §11, §12, §13, §14, §15

[8] = Toxicity on nucleated cells, DAUDI human lymphoma B; type: cell-based; settings: human, daudi lymphoma b cells, 1 hour 30, trypan blue, read-out: LD 50 (concentration leading to a mortality of 50%)
red corpuscles = experiment: Toxicity on red corpuscles (lysis), mice; type: cell-based; settings: 37° C., 1 hour 30, 90 min, 90 min, read-out: LD 50 (dose which leads to lysis in 50% of the erythrocytes)
Method: as §16, §17, §18, §19, §20, §21, §22, §23

[9] = Toxicity on nucleated cells, human bone marrow; type: cell-based; settings: 1 hour 30, trypan blue, read-out: LD 50 (concentration leading to a mortality of 50%)
Method: as §10, §11, §12, §13, §14, §15

[10] = Toxicity on nucleated cells, mice T lymph gland cells; type: cell-based; settings: mouse, 1 hour 30, trypan blue, read-out: LD 50 (concentration leading to a mortality of 50%)
Method: as §10, §11, §12, §13, §14, §15

[11] = Sabouraud agar-agar, disc diameter 1 cm, 0.1 ml
[12] = Sabouraud broth, 28° C., 18 hours

C[C@@H]1[C@H](O)[C@@H](C)/C=C/C=C/C=C/C=C/C=C/C=C/C=C/[C@H](O[C@@H]2O[C@H](C)[C@@H](O)[C@H](N)[C@@H]2O)C[C@@H]2O[C@](O)(C[C@@H](O)C[C@@H](O)[C@H](O)CC[C@@H](O)C[C@@H](O)CC(=O)O[C@H]1C)C[C@H](O)[C@H]2C(=O)O [AmB, amphotericine B, reference compound]
solubility in water (in words) [1]: sparingly soluble in water
IC (1 cm inhibition zone) (Aspergillus fumigatus; Aspergillus fumigatus, read-out: concentration giving a growth inhibition of 1 cm around a disc in solid medium): 50 µM
IC (1 cm inhibition zone) (Aspergillus flavus): 50 µM
solubility (in words) [2]: insoluble
IC50 (Pytirosporum orbiculare; 18 h): < 0.01 µM
IC50 (Candida albicans; Candida albicans, 18 h): 0.08 µM
IC50 (Candida albicans B 2630): 0.35 µM
IC50 (Saccharomyces cerevisiae): 0.54 µM
IC50 (Cryptoccocus neoformans; 18 h): 0.08 µM

C[C@@H]1[C@H](O)[C@@H](C)/C=C/C=C/C=C/C=C/C=C/C=C/C=C/[C@H](O[C@@H]2O[C@H](C)[C@@H](O)[C@H](NC3O[C@H](C(N)=O)[C@@H](O)[C@H](O)[C@H]3O)[C@@H]2O)C[C@@H]2O[C@](O)(C[C@@H](O)C[C@@H](O)[C@H](O)CC[C@@H](O)C[C@@H](O)CC(=O)O[C@H]1C)C[C@H](O)[C@H]2C(=O)O (some centres unmarked) [Uncatalyzed NMG salt, reference compound]
CC50 at 1.5 h [3]: 80 µM

CC1OC[C@@H](O)[C@H]([C@H](O)C(=O)CN[C@@H]2[C@H](O)[C@H](O[C@H]3/C=C/C=C/C=C/C=C/C=C/C=C/C=C/[C@H](C)[C@@H](O)[C@@H](C)[C@H](C)OC(=O)C[C@H](O)C[C@H](O)CC[C@@H](O)[C@H](O)C[C@H](O)C[C@]4(O)C[C@H](O)[C@@H](C(=O)O)[C@H](C3)O4)O[C@H](C)[C@H]2O)O1 (stereo partly drawn) [AmB 22 F, 1-deoxy-1-amino-4,6-O-ethylidene-D-fructosyl-AmB]
CC50 (X 63 (mice lymphoma B)): > 1000 µM
CC50 at 1.5 h [4]: 20 µM
HC50 at 1.5 h [5]: 100 µM
CC50 at 1.5 h [6]: 3.5 µM
CC50 (PBL): > 1000 µM
CC50 at 1.5 h [7]: > 300 µM
CC50 at 1.5 h [8]: > 1000 µM
HC50 (red corpuscles): 90 µM
CC50 at 1.5 h [9]: 1000 µM
concentration giving a growth inhibition of 1 cm around a disc in solid medium (Aspergillus fumigatus; [11]): 5 × 10^-4 molarity
IC (1 cm inhibition zone) (Aspergillus flavus; [11]): 150 µM
CC50 at 1.5 h [10]: 20 µM
IC50 (Pytirosporum orbiculare; [12]): 0.18 µM
IC50 (Candida albicans; [12]): 0.56 µM
IC50 (Saccharomyces cerevisiae; [12]): 1.6 µM
IC50 (Cryptoccocus neoformans; [12]): 0.25 µM
